From PubChem BioAssay AID1259411 (Chemical Carcinogenesis Research Information System (CCRIS), 2018)
Activity calls are given as the source filed them. No rule for the calls is given here.

Test system: rodent carcinogenicity bioassays, tumor incidence
Test: CCRIS carcinogenicity studies
In short: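 NCI-built, expert-reviewed records of carcinogenicity and related test outcomes (mutagenicity, tumor promotion/inhibition) compiled from published and report sources, historical span 1985-2011, not updated.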

SMILES: ClC/C=C/CCl
- carcinogen call (Species: RAT, Strain/Sex: CD/MALE, Route: INHALATION, Dose: 0, 0.1, 0.3, 1.0 PPM 6 HR/D 5 D/WK FOR 86 WK (STUDY DURATION: 86 WK), Dose: 0, 0.1, 0.3, 1.0 PPM 6 HR/D 5 D/WK FOR 86 WK (STUDY DURATION: 86 WK), Tumor Site: Type of Lesion: NASAL CAVITY: ADENOMA, ADENOCARCINOMA, CARCINOSARCOMA, MIXED CARCINOMA): active; positive
- carcinogen call (Species: Rat, Strain/Sex: CD BR/Female (140/group), Route: Inhalation, Dose: 0, 0.5 6 hr/d for 2 yr, 5 ppm 6 hr/d lowered to 2.5 ppm after 7 mo and continued an additional 5 mo with a 1-yr maintena, Dose: 0, 0.5 6 hr/d for 2 yr, 5 ppm 6 hr/d lowered to 2.5 ppm after 7 mo and continued an additional 5 mo with a 1-yr maintena, Tumor Site: Type of Lesion: Nasal Passages: Benign (0 (0%), 23 (18%), 5 (3.9%)) and malignant tumors (0 (0%), 2 (1.6%), 113 (88.3%))): active; positive
- carcinogen call (Species: Rat, Strain/Sex: CD BR/Male (140/group), Route: Inhalation, Dose: 0, 0.5 6 hr/d for 2 yr, 5 ppm 6 hr/d lowered to 2.5 ppm after 7 mo and continued an additional 5 mo with a 1-yr maintena, Dose: 0, 0.5 6 hr/d for 2 yr, 5 ppm 6 hr/d lowered to 2.5 ppm after 7 mo and continued an additional 5 mo with a 1-yr maintena, Tumor Site: Type of Lesion: Nasal Passages: Benign (0 (0%), 33 (25.4%), 2 (1.6%)) and malignant tumors (0 (0%), 11 (8.5%), 114 (88.4%))): active; positive

SMILES: [Be]
- carcinogen call (Species: RAT, Strain/Sex: WISTAR/FEMALE, Route: INTRATRACHEAL, Dose: 0, 0.5, 2.5 MG, SINGLE DOSE IN SALINE SUSPENSION, Tumor Site: Type of Lesion: LUNG): active; positive
- carcinogen call (Species: RAT, Strain/Sex: WISTAR/FEMALE, Route: INTRATRACHEAL, Dose: 0.5, 2.5 MG/RAT IN SALINE SUSPENDED ONCE, Tumor Site: Type of Lesion: LUNG): active; positive

SMILES: c1ccc2c(c1)cnc1ccccc12
- carcinogen call (Species: RAT, Strain/Sex: SPRAGUE-DAWLEY/FEMALE, Route: SUBCUTANEOUS, Dose: 0, 200 UMOL/KG IN DMSO INTO SUPRASCAPULAR AREA ON DAY 1 OF LIFE FOLLOWED BY 0, 100 UMOL 1/WK AT WK 2-7 THEN 0, 200 UMOL/, Dose: 0, 200 UMOL/KG IN DMSO INTO SUPRASCAPULAR AREA ON DAY 1 OF LIFE FOLLOWED BY 0, 100 UMOL 1/WK AT WK 2-7 THEN 0, 200 UMOL/): inactive; negative
- carcinogen call (Species: RAT, Strain/Sex: SPRAGUE-DAWLEY/MALE, Route: SUBCUTANEOUS, Dose: 0, 200 UMOL/KG IN DMSO INTO SUPRASCAPULAR AREA ON DAY 1 OF LIFE FOLLOWED BY 0, 100 UMOL 1/WK AT WK 2-7 THEN 0, 200 UMOL/, Dose: 0, 200 UMOL/KG IN DMSO INTO SUPRASCAPULAR AREA ON DAY 1 OF LIFE FOLLOWED BY 0, 100 UMOL 1/WK AT WK 2-7 THEN 0, 200 UMOL/): inactive; negative

SMILES: CCO
- carcinogen call (Species: MOUSE, Strain/Sex: B6C3F1/FEMALE (48/GROUP), Route: ORAL, Dose: 2.5% OR 5% IN DRINKING WATER (STUDY DURATION: 2 YRS)): inactive; negative; inadequate study to determine carcinogenic activity
- carcinogen call (Species: MOUSE, Strain/Sex: B6C3F1/MALE (48/GROUP), Route: ORAL, Dose: 2.5% OR 5% IN DRINKING WATER (STUDY DURATION: 2 YRS), Tumor Site: Type of Lesion: LIVER: HEPATOCELLULAR ADENOMA OR CARCINOMA (COMBINED)): active; positive; inadequate study to determine carcinogenic activity
- carcinogen call (Species: RAT, Strain/Sex: SPRAGUE-DAWLEY/FEMALE, Route: ORAL, Dose: 0, 1, 3% IN LIQUID DIET FOR 104 WK (STUDY DURATION: 120 WK), Dose: 0, 1, 3% IN LIQUID DIET FOR 104 WK (STUDY DURATION: 120 WK)): inactive; negative
- carcinogen call (Species: RAT, Strain/Sex: SPRAGUE-DAWLEY/MALE, Route: ORAL, Dose: 0, 1, 3% IN LIQUID DIET FOR 104 WK (STUDY DURATION: 120 WK), Dose: 0, 1, 3% IN LIQUID DIET FOR 104 WK (STUDY DURATION: 120 WK)): inactive; negative
